Measured values published in US20220079935A1, “COMPOUNDS AND TREATMENTS THAT ENHANCE ENTERIC NERVOUS SYSTEM FUNCTION” (The Johns Hopkins University, priority 2019, published 2022).
Entries after “also recorded” stand apart in the source; their conditions may differ. Values belong to the molecule of their own block, whether it stands above or below them.

What was measured:
[1] = target: T1, TrkB (Mus musculus, UniProt P15209, F616A); test: TrkB inhibition in NTrk2 tmlDdg/J mutant mice; assay type: in vivo; conditions: 1NMPP1 25 μM injected in NTrk2 tmlDdg/J mutant mice; preliminary
T1 construct: from tissue; host or cells: NTrk2 tm1Ddg/J knock-in mutant mice (in vivo; intestine)

[2] = tested on: rat enteric glia cell line EGC/PK060399 (ATCC CRL-2690); test: BDNF release from cultured enteric glia cell line (BDNF ELISA); assay type: cell-based
Experimental: FIG. 16 is a time response curve showing the BDNF secretion by enteric glial cells stimulated with 10 μM J11. The enteric glial cells (EGC/PK060399egfr, ATCC® CRL-2690™) were treated with 10 μM J11, and the conditional medium were harvested at 2, 6, 24 and 48 hours after treatment. The BDNF secretion was quantified using BDNF ELISA kit following the manufacturer's protocol.
(§1) The inventors next embarked on a strategy to identify novel therapeutic agents for NEC based upon their ability to enhance glial function and thus reduce TLR4 signaling and NEC. To do so, several libraries of FDA approved compounds were screened against the rat enteric glia cell line EGC/PK060399 (ATCC® CRL-2690™) for their ability to induce BDNF release, then the hits were validated by their ability to reduce NEC in mice. The lead hit, shown in FIG. 6A, is a C13H11NO5 compound with MW 261.23Da, herein named “J11”.
A dose-response curve was established for oxolinic acid (J11) in inducing BDNF release in the enteric glia cell line EGC/PK060399, and will be used evaluate a safety profile based upon its mean effective dose in mice. […] The BDNF secretion was quantified using BDNF ELISA kit following the manufacturer's protocol. The amount of BDNF was time dependent with the greatest secretion after 48 hours of exposure.

[3] = tested on: enteric glial cells (EGC/PK060399egfr, ATCC CRL-2690); test: BDNF mRNA expression by enteric glial cells (qPCR); assay type: cell-based, rat; conditions: 10 μM and 20 μM J11
Experimental: FIG. 17 depicts a time response curve showing the BDNF mRNA expression by enteric glial cells stimulated with 10 μM and 20 μM J11. The enteric glial cells (EGC/PK060399egfr, ATCC® CRL-2690™) were treated with 10 μM and 20 μM J11, and the enteric glial cells were harvested at 2, 6, 24 and 48 hours after treatment.
The enteric glial cells (EGC/PK060399egfr, ATCC® CRL-2690™) were treated with 10 μM and 20 μM J11, and the enteric glial cells were harvested at 2, 6, 24 and 48 hours after treatment. Total RNA was isolated using the RNeasy mini kit following the manufacturer's protocol. Complementary DNA was synthesized from 0.5 μg RNA using M-MLV reverse transcriptase. The qPCR analysis was performed with the Bio-Rad CFX96 Real-Time System (Biorad, Hercules, Calif.). The relative BDNF mRNA expression was normalized against the expression of housekeeping gene RPLO.

[4] = tested on: intestine of wild type mice; test: BDNF release in the intestine after oral administration; assay type: in vivo; conditions: oral administration 20 mg/kg, wild type mice (FIG. 6C)
[5] = tested on: TLR4 signaling; test: LPS-mediated TLR4 signaling in the intestine of mice; assay type: in vivo
Experimental: (§2) FIGS. 5A-5K. BDNF restrains TLR4 signaling in the intestinal epithelium. 5A) enterocytes. 5B) In wild-type mice, BDNF (1 μg/kg) LPS (5 mg/kg) injection for 6 hrs. 5C) qRT-PCR of human ileum freshly harvested from patient with NEC treated with LPS (25 μg/kg) for 6 hr. 5D-H) H&E images. 5I) BDNF ELISA. 5J-K) TNFα and NEC severity. *p<0.05 by ANOVA; 5-10 mice per experiment.
(§3) Fifth, wild-type mice with NEC show reduced levels of BDNF in the intestinal mucosa (FIG. 5H-I), consistent with the reduction in glia.
as §1
(§4) The inventors sought to determine how BDNF inhibits TLR4 and thus attenuates NEC. BDNF is known to signal principally via its receptor, namely tropomyosin-related kinase B (TrkB), which the inventors now show to be present in the intestinal epithelium (FIG. 7). The inventors have now knocked down TrkB in IEC-6 enterocytes (FIG. 7A) using lentiviral delivery of TrkB shRNA.

[6] = tested on: NEC in mice; test: Experimental NEC model in mice; assay type: in vivo
Experimental: In the inventors' NEC model, 7d old mice are gavaged with a combination of Similac Advance infant formula (Abbott Nutrition):Esbilac canine milk replacer (PetAb) in a 2:1 ratio at 50 μl/g every 3 hours, and subjected to 10 minutes of hypoxia (5% O2 95% N2 in a Billups-Rothenberg chamber) twice daily for four days, and then orally gavaged dysbiotic bacteria (1×10^5 cfu/ml) obtained from the stool of a patient with severe NEC (see our recent JCI paper for more model details^7). This protocol induces patchy intestinal necrosis and mucosal disruption which mimics human NEC in wild-type mice, but not in either TLR4^ΔIEC or TLR4^−/− littermates.

[7] = tested on: premature human intestine obtained after surgery for NEC; test: Human NEC intestine treated ex vivo with LPS; assay type: cell-based
Experimental: as §2, §3, §1

[8] = tested on: TLR4 signaling; test: LPS-induced cytokine expression in cultured enterocytes or enteroids; assay type: cell-based, mice; conditions: BDNF 1 μg/ml
Text: as §3, §4

T1 sequence (P15209 32-821 F616A): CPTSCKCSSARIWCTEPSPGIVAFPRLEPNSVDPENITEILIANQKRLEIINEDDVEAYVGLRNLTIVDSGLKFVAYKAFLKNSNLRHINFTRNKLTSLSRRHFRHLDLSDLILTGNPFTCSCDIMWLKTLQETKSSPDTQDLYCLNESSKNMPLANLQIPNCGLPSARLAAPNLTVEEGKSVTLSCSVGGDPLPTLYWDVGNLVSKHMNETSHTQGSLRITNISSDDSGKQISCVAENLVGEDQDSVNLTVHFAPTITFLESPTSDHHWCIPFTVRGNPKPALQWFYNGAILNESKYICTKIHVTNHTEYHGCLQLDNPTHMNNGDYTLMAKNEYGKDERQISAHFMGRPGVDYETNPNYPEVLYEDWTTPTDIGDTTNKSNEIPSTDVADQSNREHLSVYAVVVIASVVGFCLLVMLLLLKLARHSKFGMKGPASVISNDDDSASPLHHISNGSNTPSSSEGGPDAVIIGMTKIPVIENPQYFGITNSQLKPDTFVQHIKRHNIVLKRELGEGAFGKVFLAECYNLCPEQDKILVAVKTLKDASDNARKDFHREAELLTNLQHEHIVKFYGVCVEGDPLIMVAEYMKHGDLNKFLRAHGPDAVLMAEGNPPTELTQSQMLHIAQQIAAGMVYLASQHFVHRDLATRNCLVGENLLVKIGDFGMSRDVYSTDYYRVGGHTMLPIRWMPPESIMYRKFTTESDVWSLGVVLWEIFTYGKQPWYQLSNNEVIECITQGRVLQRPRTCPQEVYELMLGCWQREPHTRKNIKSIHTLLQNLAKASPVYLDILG

TrkB inhibition [1]: preliminarily achieved TrkB inhibition
Molecule: CC(C)(C)n1nc(Cc2cccc3ccccc23)c2c(N)ncnc21 [1NMPP1]

Molecule: CCn1cc(C(=O)O)c(=O)c2cc3c(cc21)OCO3 [J11, oxolinic acid]
time of greatest BDNF secretion ([2]; 10 μM J11, conditional medium harvested at 2, 6, 24 and 48 hours, BDNF ELISA (FIG. 16)): 48 h
BDNF release from enteric glia ([2]; cultured enteric glia (FIG. 6B)): induced BDNF release
time of maximal BDNF mRNA expression ([3]; harvested at 2, 6, 24 and 48 hours): 24 h
BDNF mRNA expression ([3]; normalized to RPLO (FIG. 17)): stimulated
BDNF release in the intestine [4]: induced BDNF release
LPS-mediated TLR4 signaling in the intestine ([5]; LPS 5 mg/kg, wild type mice (FIG. 6D)): inhibited LPS (5 mg/kg)-mediated TLR4 signaling
NEC severity ([6]; administered orally 20 mg/kg/day to 7d old mice, 20 mg/kg/day): significantly reduced NEC severity; also recorded: prevents NEC in mice
TLR4 signaling / inflammation in human NEC intestine ([7]; J11 10 μM, LPS 25 μg/ml, ex vivo): reduced TLR4 signaling; also recorded: reduces TLR4 signaling in human tissue; also recorded: reduces inflammation in human NEC tissue ex vivo
BDNF release in human NEC intestine ([7]; J11 10 μM, ex vivo): significantly induced BDNF release

B1: BDNF: brain derived neurotrophic factor, enteric glia-derived peptide signalling through TrkB (protein, UniProt P23560 19-247, looked up)
Neurotrophic factor BDNF …: APMKEANIRGQGGLAYPGVRTHGTLESVNGPKAGSRGLTSLADTFEHVIEELLDEDQKVRPNEENNKDADLYTSRVMLSSQVPLEPPLLFLLEEYKNYLDAANMSMRVRRHSDPARRGELSVCDSISEWVTAADKKTAVDMSGGTVTVLEKVPVSKGQLKQYFYETKCNPMGYTKEGCRGIDKRHWNSQCRTTQSYVRALTMDSKKRIGWRFIRIDTSCVCTLTIKRGR
TLR4-mediated expression of pro-inflammatory cytokines in the intestinal mucosa ([5]; BDNF 1 μg/kg injection, wild type mice, 6h after LPS injection (FIG. 5B)): significantly reduced TLR4-mediated expression of the pro-inflammatory cytokines
LPS-mediated TNF induction in mice deficient in TrkB ([5]; newborn mice, TrkB shRNA by oral gavage, BDNF 1 μg/kg (FIG. 7B)): no protection of LPS-mediated TNF induction by BDNF
intestinal TNFα in glia KO mouse ([5]; qRT-PCR, glia KO mouse (FIG. 3B)): reversed by BDNF
NEC in mice lacking TrkB in the intestinal epithelium ([6]; TrkB-lacking intestinal epithelium, BDNF administration): not protected by BDNF administration
NEC severity in the glial-KO mouse model ([6]; glial-KO mice, BDNF 1 μg/kg (FIGS. 5H-K)): significantly reversed the severe NEC; also recorded: reversed by the administration of BDNF
NEC development ([6]; oral BDNF 1 μg/kg on each day of the model, histology and inflammatory cytokines): significantly protected against NEC development
protection from LPS in ileum from NEC patients ([7]; ileum from NEC patients treated with BDNF (FIG. 5C)): protection was seen
TLR4-induced cytokine expression ([8]; LPS 50 μg/ml, cultured enterocytes or enteroids from wild-type mice (FIG. 5A)): reduced TLR4 signaling
LPS induced IL-6 expression after TrkB knockdown ([8]; IEC-6 cells with TrkB shRNA, LPS 50 μg/ml (FIG. 7A)): knockdown of TrkB prevented BDNF (1 μg/ml)-mediated protection; also recorded: prevents BDNF protection of LPS TLR4-induced cytokine expression
